Reference: patent US20220175766A1, “COMPOSITIONS AND METHODS OF TREATMENT” (GB004, Inc., priority 2019, published 2022)
Read-outs that look alike come from different tables or passages of the source.

How the values were obtained:
[1] = Phase 1a single ascending dose study (oral solution): plasma pharmacokinetics; format: in vivo; details: male, human; for AUC(0-t): read-out: AUClast, mean (SD); for Cmax: read-out: Cmax, mean (SD)
Experimental: Compound 1 was administered as the HCl-salt (prepared analogously to Example 2.1).
Placebo dosing solutions were identical to active, except without Compound 1. […] Since HPβCD concentration remained constant, subjects in Cohort 5 received twice the amount of HPβCD relative to subjects in Cohorts 1 to 4. Dosing, including consumption of rinse water, was completed within 3 minutes, administered in the morning after an overnight fast, and maintained for up to 4 hours after dosing.
The secondary objective was to characterize the single-dose pharmacokinetic (PK) parameters of Compound 1 after ascending doses.
Blood samples were collected at baseline, day 1 (0.5, 1, 2, 3, 4, 6, 8, 12, 16, 24 hours post dose), day 2 (30, 36 and 48 hours post dose) and day 8 follow-up visit. Analysis of plasma samples was performed using a validated Liquid Chromatography—Mass Spectrometry and Liquid Chromatography—Tandem Mass Spectrometry (LC-MS/MS) method.

[2] = Phase 1a single ascending dose study (oral solution): safety and tolerability; format: in vivo, human; details: all doses evaluated (20-240 mg) in 50 mL or 100 mL vehicle
Description: The primary objective of the study was to assess the safety and tolerability of ascending dose levels of Compound 1 after single oral dose administration. The safety endpoints included AE incidence, clinically significant changes in vital signs, ECG parameters, clinical laboratory tests and physical examination.
All subjects underwent a complete physical examination and their medical history and demographic information collected. The body systems evaluated included general appearance, skin, lymphatic, head and neck, EENT (eyes, ears, nose, and throat), chest and lungs, cardiovascular, abdomen, extremities, musculoskeletal and neuromuscular. Vital signs were measured. Blood pressure, pulse, respiratory rate and oral temperature; were taken. Blood and urine samples were collected at screening, pre-baseline, baseline, during the treatment period, and Day 8 follow-up visit; the following clinical laboratory evaluations were conducted. […]

[3] = Phase 1a multiple ascending dose study: Compound 1 in fecal samples; format: in vivo, human; details: for dose excreted: human, feces, oral, read-out: Mean recovery of Compound 1 in feces, range across cohorts
Experimental: Fecal samples were collected, when possible, over 24 hours (0-24 hours) post administration on Day 1 and Day 7; the absolute amount of Compound 1 measured (mg) is shown Table 48.

[4] = Phase 1a multiple ascending dose study: Compound 1 concentration in colon tissue (colonic mucosal biopsy); format: in vivo, human
Description: Colonic mucosal biopsy samples were acquired.

[5] = test system: hypoxia inducible factor (HIF)-inducible gene expression; test: Phase 1a multiple ascending dose study: HIF-inducible gene expression in colonic mucosal biopsy samples; format: in vivo, human
Experimental: Colonic mucosal biopsy samples were also assessed for hypoxia inducible factor (HIF)-inducible gene expression. For Tier 1 association tests, two significant gene were detected (HMOX1, CA9).

[6] = test system: HIF-1α; test: Phase 1a multiple ascending dose study: proportion of HIF-1α positive cells in colonic biopsies (immunohistochemistry, manual assessment); format: in vivo, human; details: for Proportion of HIF-1α Positive Cells, CFB (change from baseline), Mean / Proportion of HIF-1α Positive Cells, CFB (change from baseline), Median: baseline to Day 8
Experimental: Manual assessment of the proportion of HIF-1α positive cells was conducted in 10 regions of interest, selected in whole tissue sections. (Note, the study was amended to add this immunohistochemistry analysis; thus data is only available for cohorts 4 and 5 (120 mg and 60 mg), cohorts 1-3 lacked this type of biopsy).
Table 50 presents the proportions of HIF-1α positive cells evaluated at baseline and Day 8, and the change from baseline to Day 8 of the proportion of HIF-1α positive cells. The mean proportion of HIF-1α positive cells ranged from 1% to 80% across all experimental groups.

[7] = 20 mg, Cohort 1, 20 mg single oral dose (0.4 mg/mL, 50 mL)
[8] = 60 mg, Cohort 2, 60 mg single oral dose (1.2 mg/mL, 50 mL)
[9] = 120 mg, Cohort 3, 120 mg single oral dose (2.4 mg/mL, 50 mL)
[10] = 240 mg, Cohort 4, 240 mg single oral dose (4.8 mg/mL, 50 mL)
[11] = 240 mg, Cohort 5, 240 mg single oral dose (2.4 mg/mL, 100 mL)
[12] = Pooled (60 mg and 120 mg), Baseline
[13] = Pooled (60 mg and 120 mg), Day 8

SMILES: CC(C)(C)OC(=O)N1CCN(Cc2ccn(Cc3ccc(Cl)cc3)c(=O)c2O)CC1 [Compound 1, tert-butyl 4-((1-(4-chlorobenzyl)-3-hydroxy-2-oxo-1,2-dihydropyridin-4-yl)methyl)piperazine-1-carboxylate]
- Tmax [1, 7]: 30 min
- AUC(0-t) [1, 7]: 10.7 ng·h/mL
- Cmax [1, 7]: 2.06 ng/mL
- Tmax [1, 8]: 30 min
- AUC(0-t) [1, 8]: 14.2 ng·h/mL
- Cmax [1, 8]: 7.71 ng/mL
- Tmax [1, 9]: 30 min
- AUC(0-t) [1, 9]: 32.3 ng·h/mL
- Cmax [1, 9]: 12.4 ng/mL
- Tmax [1, 10]: 30 min
- AUC(0-t) [1, 10]: 41.3 ng·h/mL
- Cmax [1, 10]: 25 ng/mL
- Tmax [1, 11]: 30 min
- AUC(0-t) [1, 11]: 79.5 ng·h/mL
- Cmax [1, 11]: 30.7 ng/mL
- Tmax ([1]; single oral solution dose, healthy male subjects): < 60 min
- Tmax ([1]; single oral solution formulation dose): 30 min
- Safety and tolerability [2]: safe and well tolerated
- Mean observed amount of Compound 1 in fecal samples ([3]; Cohort 1, 60 mg once daily, DAY 7, 0-24 hours): 22.0 mg
- Mean observed amount of Compound 1 in fecal samples ([3]; Cohort 1, 60 mg, DAY 1, 0-24 hours): 11.8 mg
- Mean observed amount of Compound 1 in fecal samples ([3]; Cohort 2, 120 mg once daily, DAY 7, 0-24 hours): 37.5 mg
- Mean observed amount of Compound 1 in fecal samples ([3]; Cohort 2, 120 mg, DAY 1, 0-24 hours): 5.9 mg
- Mean observed amount of Compound 1 in fecal samples ([3]; Cohort 3, 240 mg once daily, DAY 7, 0-24 hours): 125.3 mg
- Mean observed amount of Compound 1 in fecal samples ([3]; Cohort 3, 240 mg, DAY 1, 0-24 hours): 46.5 mg
- Mean observed amount of Compound 1 in fecal samples ([3]; Cohort 4, 120 mg once daily, DAY 7, 0-24 hours): 33.9 mg
- Mean observed amount of Compound 1 in fecal samples ([3]; Cohort 4, 120 mg, DAY 1, 0-24 hours): 14.4 mg
- Mean observed amount of Compound 1 in fecal samples ([3]; Cohort 5, 60 mg once daily, DAY 7, 0-24 hours): 11.6 mg
- Mean observed amount of Compound 1 in fecal samples ([3]; Cohort 5, 60 mg, DAY 1, 0-24 hours): 13.0 mg
- Mean fecal concentrations of Compound 1, range across cohorts ([3]; Day 1): 40 to 225 µg/g
- Mean fecal concentrations of Compound 1, range across cohorts ([3]; Day 7): 95 to 506 µg/g
- dose excreted ([3]; Day 1): 5 to 22%
- dose excreted ([3]; Day 7): 19 to 52%
- Compound 1 Concentration in Colon Tissue, Median (Range) ([4]; Cohort 2, 120 mg): 10.75 (0-1150) ng/g
- Compound 1 Concentration in Colon Tissue, Median (Range) ([4]; Cohort 3, 240 mg): 23.50 (0-301) ng/g
- Compound 1 Concentration in Colon Tissue, Median (Range) ([4]; Cohort 4, 120 mg): 127.47 (0-3330) ng/g
- Compound 1 Concentration in Colon Tissue, Median (Range) ([4]; Cohort 5, 60 mg): 102.30 (0-1360) ng/g
- Compound 1 colon tissue levels (in words) ([4]; colonic mucosal biopsy samples): increase in a dose-dependent manner
- Significant genes detected ([5]; Tier 1 association tests): HMOX1, CA9
- Significant genes detected ([5]; Tier 2 analysis): NDRG1, LCN2, BNIP3, TFF3, AKR1C3, BIRC3, TMEM45A and HILPDA
- Proportion of HIF-1α Positive Cells, Mean ([6]; 60 mg, Baseline): 6.3%
- Proportion of HIF-1α Positive Cells, Median ([6]; 60 mg, Baseline): 5.8%
- Proportion of HIF-1α Positive Cells, Mean ([6]; 60 mg, Day 8): 44.5%
- Proportion of HIF-1α Positive Cells, Median ([6]; 60 mg, Day 8): 46.5%
- Proportion of HIF-1α Positive Cells, CFB (change from baseline), Mean ([6]; 60 mg): 38.3%
- Proportion of HIF-1α Positive Cells, CFB (change from baseline), Median ([6]; 60 mg): 38.0%
- Proportion of HIF-1α Positive Cells, Mean ([6]; 120 mg, Baseline): 12.0%
- Proportion of HIF-1α Positive Cells, Median ([6]; 120 mg, Baseline): 6.3%
- Proportion of HIF-1α Positive Cells, Mean ([6]; 120 mg, Day 8): 44.1%
- Proportion of HIF-1α Positive Cells, Median ([6]; 120 mg, Day 8): 45.3%
- Proportion of HIF-1α Positive Cells, CFB (change from baseline), Mean ([6]; 120 mg): 32.1%
- Proportion of HIF-1α Positive Cells, CFB (change from baseline), Median ([6]; 120 mg): 28.5%
- Proportion of HIF-1α Positive Cells, Mean [6, 12]: 9.1%
- Proportion of HIF-1α Positive Cells, Median [6, 12]: 5.8%
- Proportion of HIF-1α Positive Cells, Mean [6, 13]: 44.3%
- Proportion of HIF-1α Positive Cells, Median [6, 13]: 45.3%
- Proportion of HIF-1α Positive Cells, CFB (change from baseline), Mean ([6]; Pooled (60 mg and 120 mg)): 35.2%
- Proportion of HIF-1α Positive Cells, CFB (change from baseline), Median ([6]; Pooled (60 mg and 120 mg)): 29.0%
- Increase from baseline to Day 8 in proportion of HIF-1α positive cells [mean±SD] ([6]; combined group (Pooled; 120 mg and 60 mg cohorts)): 35.2+28.8
